# According to patent US6624188B1, “Method of treatment with compounds having retinoid-like activity and reduced skin toxicity and lacking teratogenic effects” (Allergan, Inc., priority 1992, dated 2003):
# Like-named read-outs stand apart in the source and are kept apart here.
# Tests used:
# female hairless mice = assay type: in vivo; conditions: for Death/Total: animals died from a group of 5; for % Weight Change: end of 14 day test or at death; for Flaking/scaling grade: scale 0 to +5
# Experimental: Specifically, tests to determine skin toxicity were performed on certain examplary compounds in accordance with the present invention, and on certain analogous compounds which lack the R3 substituent in accordance with Formula 1, 2 or 3. A “Two Week Acute Skin Toxicity Study of Multiple Topical Applications in Female Hairless Mice” is conducted as follows: a daily dose (expressed in nanomoles) of the “test compound” is applied to the skin on the back of hairless mice (usually a test group of 5 mice for a given compound). The daily dose of the test compound is applied for 5 consecutive days, followed by two days when the test compound is not administered, and is thereafter administered again for 4 more consecutive days. On the 14th day the test animals if still alive, are sacrificed to perform certain studies and tests. In the meanwhile certain tests and observations are made on a daily basis with respect to body weight and skin condition. Skin condition is graded as “flaking/scaling” and “abrasion” on a scale of 0 to +5 where the various numbers correspond to the following observations.
# Results of these tests are summarized in Table 3, where daily dose is expressed in nanomoles, weight loss of the test animals is in percentages at the end of the 14 day test period, or at the time the test animal expired, and mortality is expressed with the number of animals which died from a group of 5.
# [1] = system: tissue transglutaminase (tTGASE) in HL-60 cells; experiment: Tissue Transglutaminase Assay (tTGASE) in HL-60 Cells; assay type: cell-based; conditions: FIGS. 6-9
# Experimental: Other assays in which the retinoid like activity of the compounds used in accordance with the invention are confirmed are the HL-60 transglutaminase induction and HL-60 differentiation assay, the procedures of which are described as follows.
# HL-60 cells were grown as a suspension culture in T-162 cm^2 flasks in serum-free RPMI 1640 medium supplemented with insulin (5 μg/ml), transferrin (5 μg/ml), and selenium (3 nM). The cells (1×10^6 cells/well, in 6-well dishes) were treated with serial dilutions of test compounds in the above RPMI 1640 medium which was additionally supplemented with […] dibutyryl cyclic adenosine monophosphate, a component found to be necessary for efficient differentiation of the cells. Ethanol was used in the vehicle control cultures. After 1 days of incubation at 37° C. in a 7.5% CO2 incubator, the cells were collected in a set of tubes and pelleted by centrifugation. The cells were lyzed in a buffer containing 20 mM Tris-HCl, pH 7.5, 1 mM EDTA, and 0.5% Triton X-100. An aliquot of the cell lysate was assayed for tTGASE activity in a reaction mixture containing 20 mM Tris-HCl, pH 7.5, 5 mM CaCl2, 2 mg/ml dimethylcasein, 15 mM B-mercaptoethanol and 50 μCi/ml [2,3-^3H] putrescine dihydrochloride. The reaction was carried out for 60 minutes in a 37° C. shaking water bath. The reaction was stopped by an addition of 10% trichloroacetic acid containing 0.1% putrescein. An aliquot of the stopped reaction mixture was spotted on Whatman 3 MM filter discs. The filter discs, along with the control blank filter discs, were washed twice with 5% trichloroacetic acid containing 0.1% putrescein and twice with methanol. After drying under a heat lamp, the radioactivity in the filter discs was determined by scintillation counting. An aliquot of the cell lysates was also assayed for […] by the Bradford method (Bio-Rad). After subtracting the radioactivity from the control blank filter discs, the data were calculated and expressed as pmol/min/mg protein.
# As is well understood in the art, induction of tranglutaminase activity in the just-described assay is an early marker of retinoid like activity.
# gestating ICR mice = experiment: in vivo teratology study, single oral dose on day 11 of gestation; set-up: species or system mouse
# Experimental: The methodology of the study is described as follows:
# ICR mice (Ace Animals, Boyertown, Pa.) were used. Mature male and virgin female ICR mice were housed in environmentally controlled rooms and acclimatized to a 12 hour light/dark cycle (light cycle 6 A.M. to 6 P.M.) for 2 weeks prior to use. All animals were maintained on Purina Lab Chow and tap water ad libitum. A group of 3-4 females was caged with a single male of proven fertility for 4 hours. Presence of a vaginal plug immediately afterward was regarded as evidence of successful mating, and this day was designated as day 0 of gestation.
# […] All animals were killed by cervical dislocation under mild ether anesthesia on day 17 of gestation. Upon laparotomy, the fetuses were examined for external malformations and weighed; one-half of each litter was then fixed in 95% ethanol and processed for staining of the skeleton by the rapid, alizarin red-S dye method. These preparations were examined under a dissection microscope to screen for abnormalities in the axial and the appendicular skeleton. The other half of each litter was fixed in Bouin's solution and examined by freehand razor serial sectioning to screen for anomalies of the brain, face, and palate.
# Differences in dose-related incidence of malformations and resorptions were assessed by computing percentages of affected conceptuses among total implantation sites. The groups were compared statistically by a method based on Student's t-tests of arcs in square root transformed percentages. Values at 0.05 probability level were considered significant. The median effective dose was calculated by logarithmic curve fitting of the dose-response data.
# [2] = system: limb bud mesenchymal cells; experiment: inhibition of chondrogenesis in high-density spot cultures of limb bud mesenchymal cells; assay type: cell-based; conditions: Mus musculus; limb bud mesenchymal cell spot cultures, terminated 96 hours after plating; read-out: IC50 (concentration which inhibited chondrogenesis by 50%)
# Description: In an in vitro bioassay which measures inhibition of chondrogenesis (bone formation) in […] as a classic measure of teratogenecity the results shown in Table 2 were obtained. The assay is described as follows:
# High-density “spot” cultures of limb bud mesenchymal cells were used to compare the ability of various concentrations of test drugs to suppress chondrogenic differentiation as a bioassay. Forelimb buds of mouse embryos on day 12 of gestation (54±2 somites) were dissociated in a trypsin-EDTA solution, and the resultant single-cell suspension was plated as 20-μl spots (200,000 cells/spot) on plastic culture dishes. Retinoid concentrations ranging from 0.3 ng/ml to 3 μg/ml (1 nM-10 μM) were added to the culture medium (Eagle's MEM+10% fetal bovine serum, GIBCO) 24 hours after initial plating. […]
# The cultures were terminated 96 hours after plating, at which time the medium was removed and the cells were fixed for 1 hour in 10% formalin containing 0.5% cetylpyridinium chloride. The cultures were rinsed in acetic acid and stained for 1 hour in 0.5% Alcian blue solution at pH 1.0, differentiated in 3% acetic acid, and then dehydrated in ethanol and scored for chondrogenesis under the microscope. […] The number of cartilage nodules stained in the whole spot, mean number of nodules, and standard deviations were calculated for four replicate cultures per treatment. […]
# [3] = pharmacokinetic study, drug concentration in maternal plasma and embryo after oral intubation; assay type: in vivo; conditions: mice, 10mg/kg dose, FIG. 1
# Experimental: FIG. 1 is a graph showing the concentration of compound AGN 191701 in nanograms per ml, or nanograms per gram as indicated on the chart, in the plasma and embryo of mice at various times after oral intubation of a single dose of 10 mg/kg of the compound.
# In contrast, the teratogenecity of prior art compound AGN 191183 is so high that even an undetectably low concentration of the drug already causes defective embryos.
# human sebocyte cultures = experiment: human sebocyte culture 3H-thymidine incorporation (DNA synthesis, anti-proliferative effect); assay type: cell-based; conditions: human sebocytes, 8 days treatment, FIG. 2
# Description: The retinoid like activity of the compounds used in accordance with the method of treatment of the present invention and of the novel compounds of the invention can be confirmed by several assay procedures. An assay involving human sebocyte cultures measures the inhibition of ^3H-thymidine into cells, and thus measures inhibition of DNA synthesis and thus an anti-proliferative effect on sebocyte (i.e. a sebostatic effect). This assay is also considered a specific assay for effectiveness of a compound as a potential anti-acne drug. The test is conducted as follows.
# Face-lift or forehead reduction skins from cosmetic surgeries were used as sources of human sebaceous gland cells (sebocytes).
# Isolated sebocytes were plated in type 1 collagen coated-dishes in DMEM/F12 (1:1) medium supplemented with 8% fetal bovine serum, 2% human serum, 10 ng/ml epidermal growth factor, 1 nM cholera toxin, 1 μM hydrocortisone, and penicillin/streptomycin/amphotericin B. Secondary cultures were prepared by plating Dispase dissociated cells in collagen coated 24-well plates.
# Sub-confluent secondary cultures were treated with the test compounds or ethanol vehicle every 2-3 days for 8 days in the above medium from which the total serum concentration was reduced to 2% and hydrocortisone was not included. During the last 6 hours of treatment, the cultures were labeled with 2 μCi/ml ^3H-thymidine. DNA from the cells were extracted by thichoroacetic acid and perchloric acid, and assayed for radioactivity by scintillation counting and for content of DNA by the diphenylamine calorimetric method. The results were expressed as CPM/μg DNA, or as per cent of vehicle control which incorporated about 1,000-1,500 cpm/μg DNA.
# [4] = single oral dose 1 mg/kg, day 11 of gestation, ICR mice
# [5] = single oral dose 10 mg/kg, day 11 of gestation, ICR mice
# [6] = single oral dose 100 mg/kg, day 11 of gestation, ICR mice
# [7] = daily dose 75 nanomoles topical
# [8] = daily dose 124 nanomoles topical
# [9] = daily dose 1240 nanomoles topical
# [10] = female, ICR, mouse, in vivo, po, 1 mg/kg, 17 day of gestation
# [11] = female, ICR, mouse, in vivo, po, 10 mg/kg, 17 day of gestation
# [12] = female, ICR, mouse, in vivo, po, 100 mg/kg, 17 day of gestation
compound,measurement,setting,value
"CCOC(=O)c1ccc(/C=C(\C)c2cc3c(cc2C)C(C)(C)CCC3(C)C)cc1 [AGN191422, Ethyl 4-[(E)-2-(5,6,7,8-Tetrahydro-3,5,5,8,8-pentamethylnaphthalen-2-yl)propen-1-yl]benzoate]",Death/Total,female hairless mice; daily dose 60 nanomoles topical,0/5
same,Death/Total,female hairless mice; daily dose 64 nanomoles topical,0/5
"C/C(=C\c1ccc(C(=O)O)cc1)c1cc2c(cc1Cl)C(C)(C)CCC2(C)C [AGN 191642, 4[(E)-2-(3-Chloro-5,6,7,8-tetrahydro-5,5,8,8-tetramethylnaphthalen-2-yl)propen-1-yl]benzoic Acid]",induction of transglutaminase activity,[1],active
C/C(=C\c1ccc(C(=O)O)cc1)c1cc2c(cc1C)C(C)(C)CCC2(C)C [AGN 191440],times less teratogenic than AGN 191183,gestating ICR mice; comparison of doses producing teratogenic effects in ICR mice,approximately 100 times
same,# Litters Normal,gestating ICR mice; [4],5
same,Teratogenic Effects % Cleft Palate,gestating ICR mice; [4],13%
same,Teratogenic Effects % Limb Defects,gestating ICR mice; [4],17%
same,Teratogenic Effects % Resorbed,gestating ICR mice; [4],19%
same,# Litters Normal,gestating ICR mice; [5],1
same,Teratogenic Effects % Cleft Palate,gestating ICR mice; [5],88%
same,Teratogenic Effects % Limb Defects,gestating ICR mice; [5],75%
same,Teratogenic Effects % Resorbed,gestating ICR mice; [5],2%
same,# Litters Normal,gestating ICR mice; [6],0
same,Teratogenic Effects % Resorbed,gestating ICR mice; [6],100%
same,induction of transglutaminase activity,[1],active
same,Death/Total,female hairless mice; [7],0/5
same,% Weight Change,female hairless mice; [7],3.1%
same,Flaking/scaling grade,female hairless mice; [7],+2 (Slight (˜25% or less))
same,Death/Total,female hairless mice; [8],0/5
same,% Weight Change,female hairless mice; [8],−2.7%
same,Flaking/scaling grade,female hairless mice; [8],+2 (Slight (˜25% or less))
same,Death/Total,female hairless mice; [9],3/5
same,% Weight Change,female hairless mice; [9],−19.5%
same,Flaking/scaling grade,female hairless mice; [9],"+4 (Moderate (greater than ˜50%, less than ˜75%))"
"CCOC(=O)c1ccc(/C=C(\C)c2cc(C(C)(C)C)ccc2C)cc1 [AGN191544, Ethyl 4-[(E)-2-(2-Methyl-5-tert-butylphenyl)propen-1-yl]benzoate]",Death/Total,female hairless mice; daily dose 800 nanomoles topical,0/5
"C/C(=C\c1cc(C(=O)O)cs1)c1cc2c(cc1C)C(C)(C)CCC2(C)C [AGN 191701, 2-[(E)-2-(5,6,7,8-Tetrahydro-3,5,5,8,8-pentamethylnaphthalen-2-yl)propen-1-yl]thiophene-4-carboxylic Acid]",times less teratogenic than AGN 191183,"gestating ICR mice; female, ICR, mouse, in vivo, 17 day of gestation",approximately 10^4 times
same,# Litters Normal,gestating ICR mice; [10],1
same,Teratogenic Effects % Cleft Palate,gestating ICR mice; [10],0%
same,Teratogenic Effects % Limb Defects,gestating ICR mice; [10],0%
same,Teratogenic Effects % Resorbed,gestating ICR mice; [10],18%
same,# Litters Normal,gestating ICR mice; [11],3
same,Teratogenic Effects % Cleft Palate,gestating ICR mice; [11],0%
same,Teratogenic Effects % Limb Defects,gestating ICR mice; [11],0%
same,Teratogenic Effects % Resorbed,gestating ICR mice; [11],14%
same,# Litters Normal,gestating ICR mice; [12],2
same,Teratogenic Effects % Cleft Palate,gestating ICR mice; [12],19%
same,Teratogenic Effects % Limb Defects,gestating ICR mice; [12],22%
same,Teratogenic Effects % Resorbed,gestating ICR mice; [12],2%
same,teratogenic effect (in words),"gestating ICR mice; mouse, in vivo",very little teratogeneic effect
same,IC50,[2],19 µg/mL
same,concentration of the drug in the maternal plasma and in the embryo,[3],present in substantial concentration
same,inhibition of 3H-thymidine incorporation (effectiveness in sebocyte assay),human sebocyte cultures,effective
same,induction of transglutaminase activity,[1],active
"C/C(=C\c1ccc(C(=O)O)s1)c1cc2c(cc1C)C(C)(C)CCC2(C)C [AGN 191659, 5-[(E)-2-(5,6,7,8-Tetrahydro-3,5,5,8-pentamethylnaphthalen-2-yl)propen-1-yl]-2-thiophenecarboxylic Acid]",inhibition of 3H-thymidine incorporation (effectiveness in sebocyte assay),human sebocyte cultures,effective
same,induction of transglutaminase activity,[1],active
"CCOC(=O)c1ccc(/C=C(\C)c2cc3c(cc2C)OC(C)(C)CC3(C)C)cc1 [AGN191549, Ethyl 4-[(E)-2-(2,2,4,4,7-Pentamethyl-chroman-6-yl)propen-1-yl]-benzoate]",Death/Total,female hairless mice; daily dose 300 nanomoles topical,0/5
